From patent US7015306B2 (BioSynthema, Inc., priority 1999, dated 2006)
Where a SMILES comes first, the peptide text is derived from it. [ ]: non-standard residue; d: D form. The star is where a group is joined. ξ: configuration not given here. DTPA = O=C(O)CN(CCN(CC(=O)O)CC(=O)O)CCN(CC(=O)O)CC(=O)*; ξPhe(4-guanidino) = N=C(N)Nc1ccc(CC(N)C(=O)O)cc1; Tle = CC(C)(C)[C@H](N)C(=O)O

Tests used:
neurotensin receptors = neurotensin receptors (Homo sapiens, UniProt P30989); assay: Competitive binding assay on frozen tissue sections of receptor-positive human tumors vs radioiodinated native neurotensin; conditions: for IC50: C-terminus modified derivatives
neurotensin receptors, sequence (P30989 whole entry): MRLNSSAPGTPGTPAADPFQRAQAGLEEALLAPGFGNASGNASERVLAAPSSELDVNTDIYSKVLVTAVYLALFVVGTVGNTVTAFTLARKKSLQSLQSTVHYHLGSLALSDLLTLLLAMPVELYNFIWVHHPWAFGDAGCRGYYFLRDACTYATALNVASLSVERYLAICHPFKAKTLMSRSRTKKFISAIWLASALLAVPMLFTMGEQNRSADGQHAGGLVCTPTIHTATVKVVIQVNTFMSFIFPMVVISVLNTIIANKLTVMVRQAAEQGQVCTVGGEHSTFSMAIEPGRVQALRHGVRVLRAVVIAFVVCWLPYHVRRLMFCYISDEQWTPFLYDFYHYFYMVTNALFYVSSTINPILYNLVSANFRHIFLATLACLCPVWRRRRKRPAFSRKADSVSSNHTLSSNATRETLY
Source text: Frozen tissue sections from receptor-positive human tumors were used in a competitive binding assay.

[1] = In vitro urine stability assay (HPLC) of In-111 labeled peptide; assay type: in vitro ADME; conditions: rat urine, 37EC, 4 hours
Description: (§1) All reagents were purchased from Sigma unless otherwise noted. The peptide and ^111InCl3 in 0.05 N HCl were incubated in a sodium acetate/ascorbic acid buffer for 30 minutes at room temperature. The reaction was diluted with 5% ethanol/95% PBS before using in subsequent in vitro assays.
(§2) Human serum was purchased from Sigma (H 1388). The labeled peptide was incubated in either human serum or rat urine at 37EC for the specified amount of time. An aliquot was filtered through a 0.45 μm syringe filter prior to HPLC injection.

[2] = In vitro serum stability assay (HPLC) of In-111 labeled peptide; assay type: in vitro ADME, human; conditions: human serum, 37EC, 4 hours
Description: as §1, §2

SMILES | Kd (neurotensin receptors; Table 1) [nM] | % of compound present at 4 hours in urine [1] [%] | % of peptide at 4 hours after incubation at 37EC, Urine [1] [%] | % of compound present at 4 hours in serum [2] [%] | % of peptide at 4 hours after incubation at 37EC, Serum [2] [%] | IC50 (neurotensin receptors) [nM] | Kd (neurotensin receptors; Table 3) [nM]
CC[C@H](C)[C@H](NC(=O)[C@H](Cc1ccc(O)cc1)NC(=O)[C@@H]1CCCN1C(=O)[C@H](CCCNC(=N)N)NC(=O)C(NC(=O)[C@@H]1CCCN1C(=O)[C@@H](CCCCN)NC(=O)CN(CCN(CCN(CC(=O)O)CC(=O)O)CC(=O)O)CC(=O)O)C1CCN(C(=N)N)CC1)C(=O)N[C@@H](CC(C)C)C(=O)O (single isomer, unassigned) [Compound II, DTPA-DLys-Pro-Gly(PipAm)-Arg-Pro-Tyr-Ile-Leu-OH] | 2.7 | 16.6 | 16.6 | 19.5 | 19.5 | – | –
CC[C@H](C)[C@H](NC(=O)[C@H](Cc1ccc(O)cc1)NC(=O)[C@@H]1CCCN1C(=O)[C@H](CCCNC(=N)N)NC(=O)C(CCc1ccnc(N)n1)NC(=O)[C@@H]1CCCN1C(=O)[C@@H](CCCCN)NC(=O)CN(CCN(CCN(CC(=O)O)CC(=O)O)CC(=O)O)CC(=O)O)C(=O)N[C@@H](CC(C)C)C(=O)O (single isomer, unassigned) [Compound III, DTPA-DLys-Pro-Aba(Apy)-Arg-Pro-Tyr-Ile-Leu-OH] | 68 | 6.0 | 6.0 | 4.3 | 4.3 | – | –
CC(C)C[C@H](NC(=O)[C@@H](NC(=O)[C@H](Cc1ccc(O)cc1)NC(=O)[C@@H]1CCCN1C(=O)[C@H](CCCNC(=N)N)NC(=O)C(NC(=O)[C@@H]1CCCN1C(=O)[C@@H](CCCCN)NC(=O)CN(CCN(CCN(CC(=O)O)CC(=O)O)CC(=O)O)CC(=O)O)C1CCN(C(=N)N)CC1)C(C)(C)C)C(=O)O (single isomer, unassigned) [Compound X, DTPA-DLys-Pro-Gly(PipAm)-Arg-Pro-Tyr-tBuGly-Leu-OH] | – | – | 63.0 | – | 87.5 | 3.5 | 3.5
CC[C@H](C)[C@H](NC(=O)[C@H](Cc1ccc(O)cc1)NC(=O)[C@@H]1CCCN1C(=O)C(Cc1ccc(NC(=N)N)cc1)NC(=O)[C@H](CCCNC(=N)N)NC(=O)[C@@H]1CCCN1C(=O)[C@@H](CCCCN)NC(=O)CN(CCN(CCN(CC(=O)O)CC(=O)O)CC(=O)O)CC(=O)O)C(=O)N[C@@H](CC(C)C)C(=O)O (single isomer, unassigned) [DTPA-DLys-Pro-Arg-(4-Gu)Phe-Pro-Tyr-Ile-Leu-OH] | – | – | 0 | – | 16.3 | – | 83
CC[C@H](C)[C@H](NC(=O)[C@H](Cc1ccc(O)cc1)NC(=O)[C@@H]1CCCN1C(=O)C(CCc1ccnc(N)n1)NC(=O)[C@H](CCCNC(=N)N)NC(=O)[C@@H]1CCCN1C(=O)[C@@H](CCCCN)NC(=O)CN(CCN(CCN(CC(=O)O)CC(=O)O)CC(=O)O)CC(=O)O)C(=O)N[C@@H](CC(C)C)C(=O)O (single isomer, unassigned) [DTPA-DLys-Pro-Arg-Aba(Apy)-Pro-Tyr-Ile-Leu-OH] | – | – | 4.7 | – | 15.7 | – | 1200
CC[C@H](C)[C@H](NC(=O)[C@H](Cc1ccc(O)cc1)NC(=O)[C@@H]1CCCN1C(=O)[C@H](CCCNC(=N)N)NC(=O)C(Cc1ccc(NC(=N)N)cc1)NC(=O)[C@@H]1CCCN1C(=O)[C@@H](CCCCN)NC(=O)CN(CCN(CCN(CC(=O)O)CC(=O)O)CC(=O)O)CC(=O)O)C(=O)N[C@@H](CC(C)C)C(=O)O (stereo partly drawn) [Compound I, DTPA-DLys-Pro-(4-Gu)Phe-Arg-Pro-Tyr-Ile-Leu-OH] | 8.6 | 1.5 | 1.5 | 14.1 | 14.1 | – | –
CC(C)C[C@H](NC(=O)[C@@H](NC(=O)[C@H](Cc1ccc(O)cc1)NC(=O)[C@@H]1CCCN1C(=O)[C@H](CCCNC(=N)N)NC(=O)C(Cc1ccc(NC(=N)N)cc1)NC(=O)[C@@H]1CCCN1C(=O)[C@@H](CCCCN)NC(=O)CN(CCN(CCN(CC(=O)O)CC(=O)O)CC(=O)O)CC(=O)O)C(C)(C)C)C(=O)O (stereo partly drawn) [Compound IX, DTPA-DLys-Pro-Phe(4-guanyl)-Arg-Pro-Tyr-tBuGly-Leu-OH] ({DTPA}-[dK]P[ξPhe(4-guanidino)]RPY[Tle]L-OH) | – | – | 51.1 | – | 72.0 | 12.5 | 12.5
